Tests used:
Akt kinase activity = assay: Bioluminescence imaging of nude mice bearing 293T/AS1T and 293T/AS1A xenografts; type: in vivo; settings: 30 mg/kg
Experimental: FIGS. 10a-10b illustrate the inhibition of Akt kinase activity by perifosine in living mice. FIG. 10a illustrates the efficacy of perifosine in inhibition of Akt kinase activity in living subjects was determined by bioluminescence imaging of nude mice bearing 293T/AS1A and 293T/AS1T xenografts. Mice were treated with 30 mg/kg of perifosine or carrier control at time 0 hour and re-imaged at 6, 15, 27 and 39 hours upon i.p. injection of D-Luciferin. FIG. 10b illustrate the max photons at each time point was normalized to that of carrier control treated mice and expressed as average normalized max photons+/−S.E.M. for each xenograft. It should be noted that p<0.05 relative to AS1A xenografts.
To determine if sufficient sensitivity for indirect imaging of Akt kinase activity has been achieved in living subjects, 293T/AS1T and 293T/AS1A cells were implanted at the lower left and right of nude mice for xenograft establishment. Since the bioluminescence signal from untreated 293T/AS1A cells was about 10-fold higher than that of 293T/AS1T cells in cell culture studies, 10% 293T/AS1A cells were mixed with 90% untransfected 293T cells (no FL activity) prior to implantation to normalize the signals to that of 293T/AS1T cells. Complemented FL activity in living mice was determined by bioluminescence imaging using a cooled coupled charged device (CCD) camera upon i.p. injection of D-luciferin. […] Perifosine was chosen over LY for these animal experiments since perifosine is water soluble and currently being evaluated in clinical trials. […] 6 hours of perifosine treatment led of a 20% decrease in complemented FL activity in 293T/AS1A but a 60% increase in complemented FL activity in 293T/AS1T relative to carrier control treated mice (p<0.05), corresponding to the 2-fold difference between AS1T and AS1A (FIG. 10b).
All of the animal handling was performed in accordance with Stanford University Animal Research Committee guidelines, Mice were gas anesthetized using isofluorane (2% isofluorane in 100% oxygen) during all injection and imaging procedures. Mice were imaged using a cooled CCD camera (Xenogen IVIS29; Xenogen Corp., Alameda, Calif.). […] To quantify the measured light, regions of interest were drawn over the area of the implanted cells, and the maximum photons/s/cm^2/steradian (sr) were obtained as validated previously. […] Max photons at time 6, 12 and 24 hours were normalized to that of time 0 hr for each individual mouse, and expressed as normalized average max photons±S.E.M.

[1] = Water solubility (statement); type: physicochemical
[2] = system: phosphorylated Akt(S^473); assay: Phosphorylation-specific western blotting of Akt in cell lysates; type: cell-based, human; settings: LY 24 hours or perifosine 6 hours
Experimental: To validate AS1T as a genetically-encoded reporter for indirect imaging of endogenous Akt kinase activity, confirmation needed to be made that inhibition of endogenous Akt phosphorylation/kinase activities by LY and perifosine corresponded to increase in complemented FL activities in 293T/AS1T cells, but not in 293T/AS1A cells. 293T/AS1T and 293T/AS1A cells were treated with perifosine (6 hours), LY (24 hours) and their respective carrier controls. Complemented FL activities were determined by bioluminescence imaging of intact cells while Akt phosphorylation status/kinase activities in cell lysates were determined by phosphorylation-specific western blotting and in vitro kinase assay using purified glycogen synthase kinase 3β (GSK-3β) as the substrate, respectively. In 293T/AS1T cells treated with LY or perifosine, complemented FL activity increased (FIGS. 8a and 8c), while the amount of phosphorylated Akt (FIGS. 8b and 8d, top panels) and phosphorylated GSk-3, (FIGS. 8b and 8d, bottom panel) decreased, relative to carrier control treated cells. […]
To determine the expression of total and phosphorylated Akt in 293T/AS1A and 293T/AS1T, cell lysates from the triplicate wells from the above FL assay were combined and the protein concentrations were re-determined. […]

CCCCCCCCCCCCCCCCCCOP(=O)([O-])OC1CC[N+](C)(C)CC1 [perifosine]
decrease in complemented FL activity (Akt kinase activity; 293T/AS1A xenografts, 6 hours, relative to carrier control treated mice): 20%
complemented FL activity at later time points (Akt kinase activity; 293T/AS1T and 293T/AS1A xenografts, later than 6 hours, relative to carrier control, p>0.05): no significant difference
increase in complemented FL activity (Akt kinase activity; 293T/AS1T xenografts, 6 hours, relative to carrier control treated mice, p<0.05): 60%
difference between AS1T and AS1A (Akt kinase activity; xenografts, 6 hours): 2 fold
water solubility [1]: water soluble
amount of phosphorylated Akt ([2]; 293T/AS1A cells): decreased
amount of phosphorylated Akt ([2]; 293T/AS1T cells, relative to carrier control): decreased

Reference: patent US7834148B2, “Protein phosphorylation imaging systems, methods of making phosphorylation imaging systems, and methods of use thereof” (Stanford University, priority 2006, dated 2010)
